# Experimental data taken from PubChem BioAssay (NCI).
#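 1) Cells in 96-well plates. 2) Compound, 48 h, 5 concentrations. 3) Linear interpolation between surrounding doses. 4) Unreached endpoint = highest concentration. GI50 is the concentration that inhibits growth by half. TGI: total growth inhibition.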
# Tests used:
# Experiment in all cases: NCI tumour cell line growth inhibition, 48 h
# [1] = system: SF-539 CNS
# [2] = system: EKVX NSCLC
# [3] = system: SR leukemia
# [4] = system: K-562 leukemia
# [5] = system: MOLT-4 leukemia
# [6] = system: MALME-3M melanoma
# [7] = system: KM20L2 colon
# [8] = system: HL-60(TB) leukemia
# [9] = system: DMS 273 small cell lung
# [10] = system: UACC-257 melanoma
# [11] = system: SF-295 CNS
# [12] = system: ACHN renal
# [13] = system: OVCAR-3 ovarian
# [14] = system: OVCAR-4 ovarian
# [15] = system: OVCAR-8 ovarian
# [16] = system: KM12 colon
# [17] = system: DMS 114 small cell lung
# [18] = system: 786-0 renal
# [19] = system: UO-31 renal
# [20] = system: SNB-19 CNS
# [21] = system: HCC-2998 colon
# [22] = system: LOX IMVI melanoma
# [23] = system: NCI-H522 lung
# [24] = system: UACC-62 melanoma
# [25] = system: HCT-116 colon
# [26] = system: NCI-H460 lung
# [27] = system: M14 melanoma
# [28] = system: A549 NSCLC
# [29] = system: NCI-H226 lung
# [30] = system: CCRF-CEM leukemia
# [31] = system: NCI-H23 lung
# [32] = system: U251 CNS
# [33] = system: LXFL 529 NSCLC
# [34] = system: SK-MEL-5 melanoma
# [35] = system: DLD-1 colon
# [36] = system: COLO 205 colon
# [37] = system: HOP-18 NSCLC
# [38] = system: HOP-62 NSCLC
# [39] = system: A498 renal
# [40] = system: RPMI-8226 leukemia
# [41] = system: SN12C renal
# [42] = system: SF-268 CNS
# [43] = system: IGROV1 ovarian
# [44] = system: SW-620 colon
# [45] = system: CAKI-1 renal
# [46] = system: OVCAR-5 ovarian
# [47] = system: SK-MEL-2 melanoma
# [48] = system: HCT-15 colon
# [49] = system: SNB-75 CNS
# [50] = system: HT29 colon
# [51] = system: SK-OV-3 ovarian
# [52] = system: RXF 393 renal
# [53] = system: SK-MEL-28 melanoma
# [54] = system: MCF7 breast
# [55] = system: DU-145 prostate
# [56] = system: TK-10 renal
# [57] = system: MDA-MB-435
# [58] = system: HS 578T breast
# [59] = system: BT-549 breast
# [60] = system: PC-3 prostate
# [61] = system: NCI/ADR-RES ovarian
# [62] = system: MDA-N
# [63] = system: HOP-92 NSCLC
# [64] = system: MDA-MB-231 breast
# [65] = system: T-47D breast
smiles,measurement,setting,value
Cc1ccc2c(ccc(/C=C\c3cc(C)c4cccnc4c3O)[n+]2C)c1,TGI,[1],25.1 µM
same,TGI,[2],75 µM
same,TGI,[3],25.4 µM
same,TGI,[4],> 100 µM
same,TGI,[5],28.4 µM
same,TGI,[6],25.1 µM
same,TGI,[7],33.3 µM
same,TGI,[8],19.7 µM
same,TGI,[9],21.4 µM
same,TGI,[10],28.4 µM
same,TGI,[11],26.9 µM
same,TGI,[12],20.4 µM
same,TGI,[13],12.9 µM
same,TGI,[14],39 µM
same,TGI,[15],24.1 µM
same,TGI,[16],31.6 µM
same,TGI,[17],7.54 µM
same,TGI,[18],> 100 µM
same,TGI,[19],66 µM
same,TGI,[20],35 µM
same,TGI,[21],11.6 µM
same,TGI,[22],56.2 µM
same,TGI,[23],27.8 µM
same,TGI,[24],15 µM
same,TGI,[25],19.6 µM
same,TGI,[26],18 µM
same,TGI,[27],25.5 µM
same,TGI,[28],40.9 µM
same,TGI,[29],3.98 µM
same,TGI,[30],26 µM
same,TGI,[31],53.4 µM
same,TGI,[32],68.7 µM
same,TGI,[33],18.9 µM
same,TGI,[34],2.98 µM
same,TGI,[35],4.36 µM
same,TGI,[36],71.9 µM
same,TGI,[37],9.28 µM
same,TGI,[38],27.6 µM
same,TGI,[39],33.9 µM
same,TGI,[40],21.6 µM
same,TGI,[41],24.7 µM
same,TGI,[42],47.6 µM
same,TGI,[43],> 100 µM
same,TGI,[44],30.1 µM
same,TGI,[45],25.5 µM
same,TGI,[46],> 100 µM
CC(=O)[CH-]C(=O)c1ccccc1.CC(=O)[CH-]C(=O)c1ccccc1.Cc1cc([O-])ccc1Cl.Cc1cc([O-])ccc1Cl.[Ti+4],GI50,[47],19.3 µM
same,TGI,[47],47 µM
same,GI50,[48],25.6 µM
same,TGI,[48],> 100 µM
same,GI50,[1],25.9 µM
same,TGI,[1],72.9 µM
same,GI50,[2],18 µM
same,TGI,[2],47.3 µM
same,GI50,[4],23.3 µM
same,TGI,[4],> 100 µM
same,GI50,[5],15.5 µM
same,TGI,[5],54 µM
same,GI50,[6],20.9 µM
same,TGI,[6],52.8 µM
same,GI50,[7],28.3 µM
same,TGI,[7],84.9 µM
same,GI50,[8],13.7 µM
same,TGI,[8],44.2 µM
same,GI50,[10],27.1 µM
same,TGI,[10],92.4 µM
same,GI50,[11],29.8 µM
same,TGI,[11],98.7 µM
same,GI50,[12],30.1 µM
same,TGI,[12],> 100 µM
same,GI50,[13],18.9 µM
same,TGI,[13],60.6 µM
same,GI50,[14],40.8 µM
same,TGI,[14],> 100 µM
same,GI50,[15],16.8 µM
same,TGI,[15],59.1 µM
same,GI50,[16],14.1 µM
same,TGI,[16],31.4 µM
same,GI50,[18],27.7 µM
same,TGI,[18],> 100 µM
same,GI50,[19],15.5 µM
same,TGI,[19],47.4 µM
same,GI50,[49],20.7 µM
same,TGI,[49],69.1 µM
same,GI50,[20],26.7 µM
same,TGI,[20],90.5 µM
same,GI50,[21],5.92 µM
same,TGI,[21],28.1 µM
same,GI50,[22],12.6 µM
same,TGI,[22],31.8 µM
same,GI50,[23],15.6 µM
same,TGI,[23],34.7 µM
same,GI50,[24],17 µM
same,TGI,[24],44.9 µM
same,GI50,[25],35 µM
same,TGI,[25],> 100 µM
same,GI50,[26],22.6 µM
same,TGI,[26],> 100 µM
same,GI50,[27],23.1 µM
same,TGI,[27],52.5 µM
same,GI50,[28],37.6 µM
same,TGI,[28],> 100 µM
same,GI50,[29],20.2 µM
same,TGI,[29],69.2 µM
same,GI50,[30],8.45 µM
same,TGI,[30],42.3 µM
same,GI50,[31],35.6 µM
same,TGI,[31],> 100 µM
same,GI50,[50],28.9 µM
same,TGI,[50],95.5 µM
same,GI50,[32],22.1 µM
same,TGI,[32],> 100 µM
same,GI50,[51],31.3 µM
same,TGI,[51],> 100 µM
same,GI50,[33],22.1 µM
same,TGI,[33],> 100 µM
same,GI50,[34],19.3 µM
same,TGI,[34],44.9 µM
same,GI50,[35],36.9 µM
same,TGI,[35],> 100 µM
same,GI50,[36],19.6 µM
same,TGI,[36],38.1 µM
same,GI50,[37],27.8 µM
same,TGI,[37],> 100 µM
same,GI50,[38],19.5 µM
same,TGI,[38],70.9 µM
same,GI50,[39],17.2 µM
same,TGI,[39],42.8 µM
same,GI50,[52],26 µM
same,TGI,[52],62.8 µM
same,GI50,[40],19.2 µM
same,TGI,[40],55.3 µM
same,GI50,[41],32.3 µM
same,TGI,[41],> 100 µM
same,GI50,[42],19.5 µM
same,TGI,[42],74.8 µM
same,GI50,[53],34.7 µM
same,TGI,[53],> 100 µM
same,GI50,[43],26.9 µM
same,TGI,[43],> 100 µM
same,GI50,[44],34 µM
same,TGI,[44],> 100 µM
same,GI50,[45],19.5 µM
same,TGI,[45],60.1 µM
same,GI50,[46],32.7 µM
same,TGI,[46],> 100 µM
NC(=O)SCCC(N)C(=O)O (stereo not given),TGI,[47],> 100 µM
same,TGI,[48],> 100 µM
same,TGI,[54],> 100 µM
same,TGI,[1],> 100 µM
same,TGI,[2],> 100 µM
same,TGI,[3],> 100 µM
same,TGI,[4],> 100 µM
same,TGI,[5],> 100 µM
same,TGI,[55],> 100 µM
same,TGI,[56],> 100 µM
same,TGI,[6],> 100 µM
same,TGI,[8],> 100 µM
same,TGI,[10],> 100 µM
same,TGI,[11],> 100 µM
same,TGI,[57],> 100 µM
same,TGI,[12],> 100 µM
same,TGI,[58],> 100 µM
same,TGI,[59],> 100 µM
same,TGI,[60],> 100 µM
same,TGI,[61],> 100 µM
same,TGI,[13],> 100 µM
same,TGI,[14],> 100 µM
same,TGI,[15],> 100 µM
same,TGI,[16],> 100 µM
same,TGI,[62],> 100 µM
same,TGI,[18],> 100 µM
same,TGI,[63],> 100 µM
same,TGI,[19],> 100 µM
same,TGI,[49],> 100 µM
same,TGI,[20],> 100 µM
same,TGI,[21],> 100 µM
same,TGI,[22],> 100 µM
same,TGI,[23],> 100 µM
same,TGI,[24],> 100 µM
same,TGI,[25],> 100 µM
same,TGI,[26],> 100 µM
same,TGI,[27],> 100 µM
same,TGI,[28],> 100 µM
same,TGI,[29],> 100 µM
same,TGI,[30],> 100 µM
same,TGI,[31],> 100 µM
same,TGI,[50],> 100 µM
same,TGI,[32],> 100 µM
same,TGI,[51],> 100 µM
same,TGI,[34],> 100 µM
same,TGI,[36],> 100 µM
same,TGI,[38],> 100 µM
same,TGI,[39],> 100 µM
same,TGI,[64],> 100 µM
same,TGI,[52],> 100 µM
same,TGI,[65],> 100 µM
same,TGI,[40],> 100 µM
same,TGI,[41],> 100 µM
same,TGI,[42],> 100 µM
same,TGI,[53],> 100 µM
same,TGI,[43],> 100 µM
same,TGI,[44],> 100 µM
same,TGI,[45],> 100 µM
same,TGI,[46],> 100 µM
